Experimental data as given in ChEMBL document CHEMBL4715748, “Synthesis and biological investigation of new equatorial (β) stereoisomers of 3-aminotropane arylamides with atypical antipsychotic profile” (Bioorg Med Chem, 2016).

Assays:
[1] = Effect on 8-OH-DPAT-induced lower lip retraction in Wistar rat at 0.2 mg/kg, sc pretreated with compound for 15 mins followed by 8-OH-DPAT challenge and measured after 15 mins (reference value: 2.7 to 2.8); conditions: time 30 min, 0.5 h
[2] = system: Mus musculus; test: Inhibition of 8-OH-DPAT-induced hypothermia in Swiss albino mouse assessed as change in rectal body temperature at 0.3 mg/kg, sc pretreated with compound for 45 mins followed by 8-OH-DPAT challenge and measured after 45 min by thermometer (reference value: -1.3 degreeC); type: functional, organism-based; conditions: time 90.0 min
[3] = system: Mus musculus; test: Inhibition of 8-OH-DPAT-induced hypothermia in Swiss albino mouse assessed as change in rectal body temperature at 0.3 mg/kg, sc pretreated with compound for 45 mins followed by 8-OH-DPAT challenge and measured after 30 min by thermometer (reference value: -1.7 degreeC); type: functional, organism-based; conditions: time 75.0 min
[4] = Effect on 8-OH-DPAT-induced lower lip retraction in Wistar rat at 0.1 mg/kg, sc pretreated with compound for 45 mins followed by 8-OH-DPAT challenge and measured after 15 mins (reference value: 2.7 to 2.8); type: functional; conditions: time 60 min, 1 h
[5] = system: Mus musculus; test: Inhibition of 8-OH-DPAT-induced hypothermia in Swiss albino mouse assessed as change in rectal body temperature at 0.3 mg/kg, sc pretreated with compound for 45 mins followed by 8-OH-DPAT challenge and measured after 15 min by thermometer (reference value: -1.8 degreeC); type: functional, organism-based; conditions: time 60.0 min
[6] = system: Mus musculus; test: Inhibition of 8-OH-DPAT-induced hypothermia in Swiss albino mouse assessed as change in rectal body temperature at 0.3 mg/kg, sc pretreated with compound for 45 mins followed by 8-OH-DPAT challenge and measured after 60 min by thermometer (reference value: -1.3 degreeC); type: functional, organism-based; conditions: time 105.0 min

SMILES: COc1ccccc1N1CCN(CCN(C(=O)C2CCCCC2)c2ccccn2)CC1 [WAY-100,635]
- Activity [1]: 1.3
- deltaT [2]: -0.5 °C
- deltaT [3]: -0.8 °C
- Activity [4]: 1.4
- deltaT [5]: -0.6 °C
- deltaT [6]: -0.2 °C
